Bounds are passed on as bounds.

The first assay addresses T1, RORγ ligand binding domain (LBD) (Homo sapiens, UniProt P51449).
T1 construct: made in house; host or cells: E. coli BL-21 (BL3), vector pDEST15
T1 sequence (P51449 269-508 limits assumed): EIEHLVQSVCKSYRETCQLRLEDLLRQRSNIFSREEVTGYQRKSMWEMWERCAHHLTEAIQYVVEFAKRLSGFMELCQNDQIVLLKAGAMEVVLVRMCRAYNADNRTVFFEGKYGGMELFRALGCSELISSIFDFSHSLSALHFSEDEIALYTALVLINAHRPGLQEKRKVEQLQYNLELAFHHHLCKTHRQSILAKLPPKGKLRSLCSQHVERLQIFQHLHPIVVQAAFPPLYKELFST
Put plainly: TR-FRET Activity Assay (ligand sensing, RORγ-LBD / coactivator peptide interaction). In kind it is biochemical.
Conditions: not given
From the text:
This method measures the ability of putative ligands to modulate the interaction between the purified bacterial expressed RORγ ligand binding domain (LBD) and synthetic N-terminally biotinylated peptides which are derived from nuclear receptor coactivator proteins such as but not limited to SRC1 (NcoA1), SRC2 (NcoA2, TIF2), SRC3 (NcoA3), PGC1α, PGC1β, CBP, GRIP1, TRAP220, RIP140.
The ligand-binding domain (LBD) of RORγ was expressed as fusion protein with GST in […] cells using the vector pDEST15. Cells were lysed by lysozyme-treatment and sonication, and the fusion proteins purified over glutathione sepharose (Pharmacia) according to the manufacturers instructions. For screening of compounds for their influence on the RORγ-peptide interaction, the LANCE technology (Perkin Elmer) was applied. This method relies on the binding dependent energy transfer from a donor to an acceptor fluorophor attached to the binding partner of interest. For ease of handling and reduction of background from compound fluorescence LANCE technology makes use of generic fluorophore labels and time resolved detection assays were done in a final volume of 25 μL in a 384 well plate, in a Tris-based buffer system (20 mM Tris-HCl pH6.8; 60 mM KCl, 1 mM DTT; 5 mM MgCl2; 35 ng/μL BSA), containing 20-60 ng/well recombinantly expressed RORγ-LBD fused to GST, 200-600 nM N-terminally biotinylated peptide, 200 ng/well Streptavidin-xIAPC conjugate (Prozyme) and 6-10 ng/well Eu W1024-antiGST (Perkin Elmer). DMSO content of the samples was kept at 1%.
After generation of the Tris-based buffer system, the potentially RORγ modulating ligands were diluted. […] The LANCE signal was detected by a Perkin Elmer EnVision™ Multilabel Counter. The results were visualized by plotting the ratio between the emitted light at 665 nm and 615 nm. […] Ligands that promote the complex formation induce a concentration-dependent increase in time-resolved fluorescent signal.
The normalised TR-FRET assay values, using the following equation: 1000*665 nm measurement value/615 nm measurement value, were transferred to the program GraphPad Prism to generate graphs and dose response curves using the following equation:
Equation: Sigmoidal Dose-Response (Variable Slope) Y=Bottom+(Top-Bottom)/(1+10^((LogEC50−X)*HillSlope)) X is the logarithm of the concentration. Y is the response. Y starts at Bottom and goes to Top with a sigmoidal shape.
This is identical to the “four parameter logistic equation”. The IC50 values are calculated using this equation.
In general, IC50 refers to the point on the concentration scale where inhibition reaches its midpoint. `Cc1c(S(N)(=O)=O)cc(-c2cc(C(C)(C)C)cc(C(C)(C)C)c2)n1CC1CCCCO1` (stereo not shown) [1/21] displayed an IC50 of 500 to 2000 nM.

`Cc1c(S(N)(=O)=O)cc(-c2cn(S(=O)(=O)NC(C)(C)C)c3ccccc23)n1CC1CCCCC1` [1/32] gave a half-inhibitory concentration (IC50) of over 2000 nM.

In turn, `Cc1c(S(=O)(=O)NCC(C)(C)O)cc(-c2cc(C(C)(C)C)cc(C(C)(C)C)c2)n1CC1CCCCC1` [2/5] yielded an IC50 of under 500 nM.

The assay is the same for the next values; noted with them: read-out: RORγ activity in the TR-FRET Activity Assay (IC50 FRET), Group.
For `Cc1c(S(N)(=O)=O)cc(-c2cccc(N3CCCC3)c2)n1CC1CCCCC1` [1/14], the IC50 is over 2000 nM.

Regarding `Cc1c(S(N)(=O)=O)cc(-c2cc(C(F)(F)F)c3ncccc3c2)n1CC1CCCCC1` [1/16], the IC50 is over 2000 nM.

For the compound `Cc1c(S(N)(=O)=O)cc(-c2cccc(S(=O)(=O)N(C)C(C)(C)C)c2)n1CC1CCCCC1` [1/17], the concentration for half-maximal inhibition (IC50) was over 2000 nM.

Regarding `Cc1c(S(N)(=O)=O)cc(-c2cn(S(=O)(=O)c3ccccc3)c3ccccc23)n1CC1CCCCC1` [1/19], the 50% inhibitory concentration (IC50) was in the range of 500 to 2000 nM.

Turning to `Cc1c(S(N)(=O)=O)cc(-c2cc(C(C)(C)C)cc(C(C)(C)C)c2)n1CC1CCOCC1` [1/20], the concentration for half-maximal inhibition (IC50) is over 2000 nM.

As for `Cc1c(S(N)(=O)=O)cc(-c2cc(C(C)(C)C)cc(C(C)(C)C)c2)n1CCC1CCCC1` [1/22], the half-maximal inhibitory concentration (IC50) is under 500 nM.

As to `Cc1c(S(N)(=O)=O)cc(-c2cc(C(C)(C)C)nc(C(F)(F)F)c2)n1CC1CCCCC1` [1/23], the half-maximal inhibitory concentration (IC50) is 500 to 2000 nM.

For the compound `Cc1c(S(N)(=O)=O)cc(-c2ccc(S(=O)(=O)N3CCC3(C)C)c(C(C)(C)C)c2)n1CC1CCCCC1` [1/24], the IC50 is under 500 nM.

For `Cc1c(S(N)(=O)=O)cc(-c2ccc(S(=O)(=O)N3CCCCC3)c(C(C)(C)C)c2)n1CC1CCCCC1` [1/25], the concentration for half-maximal inhibition (IC50) is under 500 nM.

For `Cc1c(S(N)(=O)=O)cc(-c2ccc(S(=O)(=O)N3CCC(C)CC3)c(C(C)(C)C)c2)n1CC1CCCCC1` [1/26], the IC50 was 500 to 2000 nM.

On to `Cc1c(S(N)(=O)=O)cc(-c2ccc(S(=O)(=O)N3CCCC(C)C3)c(C(C)(C)C)c2)n1CC1CCCCC1` (stereo not shown) [1/27], for which the IC50 is under 500 nM.

For the compound `Cc1c(S(N)(=O)=O)cc(-c2cn(S(=O)(=O)N(C)C(C)(C)C)c3ccccc23)n1CC1CCCCC1` [1/31], the 50% inhibitory concentration (IC50) was under 500 nM.

In the case of `Cc1c(S(N)(=O)=O)cc(-c2cn(S(=O)(=O)N3CCCCC3)c3ccccc23)n1CC1CCCCC1` [1/33], the IC50 lay in the range of 500 to 2000 nM.

As for `Cc1c(S(N)(=O)=O)cc(-c2cn(S(=O)(=O)NC3CCCCC3)c3ccccc23)n1CC1CCCCC1` [1/34], the IC50 lay in the range of 500 to 2000 nM.

As for `Cc1ccc2c(-c3cc(S(N)(=O)=O)c(C)n3CC3CCCCC3)cn(S(=O)(=O)N3CCCCC3)c2c1` [1/35], the half-inhibitory concentration (IC50) is under 500 nM.

For the compound `Cc1c(S(N)(=O)=O)cc(-c2c(C)n(S(=O)(=O)N3CCCCC3)c3ccccc23)n1CC1CCCCC1` [1/36], the IC50 was over 2000 nM.

As for `Cc1c(S(N)(=O)=O)cc(-c2cc(C(C)(C)C)cc(C(C)(C)C)c2)n1CC1CCCCCC1` [1/37], the half-inhibitory concentration (IC50) was under 500 nM.

Consider `Cc1c(S(N)(=O)=O)cc(-c2cc(C(C)(C)C)cc(C(C)(C)C)c2)n1CC1CCCC1` [1/38], for which the concentration for half-maximal inhibition (IC50) is 500 to 2000 nM.

`Cc1c(S(N)(=O)=O)cc(-c2cc(C(C)(C)C)cc(C(C)(C)C)c2)n1CC1CCC1` [1/39]: the IC50 is 500 to 2000 nM.

For the compound `Cc1c(S(=O)(=O)NCCO)cc(-c2cc(C(C)(C)C)cc(C(C)(C)C)c2)n1CC1CCCCC1` [2/2], the IC50 is under 500 nM.

As for `Cc1c(S(=O)(=O)NC2CCC2)cc(-c2cc(C(C)(C)C)cc(C(C)(C)C)c2)n1CC1CCCCC1` [2/3], the IC50 fell in the range of 500 to 2000 nM.

Turning to `Cc1c(S(=O)(=O)NC2CCCC2)cc(-c2cc(C(C)(C)C)cc(C(C)(C)C)c2)n1CC1CCCCC1` [2/4], the IC50 lay in the range of 500 to 2000 nM.

`Cc1c(S(=O)(=O)NCCN2CCOCC2)cc(-c2cc(C(C)(C)C)cc(C(C)(C)C)c2)n1CC1CCCCC1` [2/6]: the IC50 is under 500 nM.

Take `Cc1c(S(=O)(=O)NCc2nc(C(=O)O)co2)cc(-c2cc(C(C)(C)C)cc(C(C)(C)C)c2)n1CC1CCCCC1` [5/5]: the half-inhibitory concentration (IC50) was in the range of 500 to 2000 nM.

In the case of `Cc1c(S(=O)(=O)NCC2COCCN2C)cc(-c2cc(C(C)(C)C)cc(C(C)(C)C)c2)n1CC1CCCCC1` (stereo not shown) [5/11], the 50% inhibitory concentration (IC50) was in the range of 500 to 2000 nM.

The values above are taken from US8946446B2, “Pyrrolo sulfonamide compounds for modulation of orphan nuclear receptor RAR-related orphan receptor-γ (ROR-γ, NR1F3) activity and for the treatment of chronic inflammatory and autoimmune diseases” (Phenex Pharmaceuticals AG, priority 2011, dated 2015).
